How the values were obtained:
[1] = tested on: isolated adult rat ventricular myocytes; test: Counteraction of mavacamten effects in isolated myocytes in vitro; assay type: cell-based
Description: (§1) Additional supportive measures, e.g., intravenous volume supplementation and/or the use of arterial vasoconstrictor agents (a adrenergic agonists) may complement the use of a β adrenergic agonist.

anaesthetized rats = test: Counteraction of mavacamten effects in anaesthetized rats in vivo; parameters: species or system rat
Description: as §1

[2] = tested on: conscious fully-instrumented dogs with normal cardiac function; test: Cardiac reserve under acute β-AR (dobutamine) challenges in conscious instrumented dogs; assay type: in vivo, dog; conditions: before and under acute mavacamten treatment
Protocol: In addition, the effects of MAVA (at 1.5 mg/kg PO, via gavage) on cardiac reserve were evaluated via acute β-AR challenges (dobutamime: 2, 5, and 10 ug/kg/min IV) in conscious fully-instrumented (LVPV group) dogs with normal cardiac function (n=8). These challenges were performed before/after dosing (+3-hour) in control- and MAVA-treated animals both under normal cardiac physiological conditions (n=4) and under (mild) concomitant cardio-depression induced via either selective β-AR blockade (+BB, metoprolol 0.5±0.1 mg/kg PO tid; n=4) or L-type Ca2+-channel blockade (+CCB, verapamil at 5±1 mg/kg PO tid; n=4); pharmacological blockades were established for 7 days prior to the MAVA treatment. Both peak and dose-responses were evaluated at steady state.
Throughout these experiments, analog signals were digitally acquired (1000 Hz) and recorded continuously with a data acquisition/analysis system (IOX; EMKA Technologies). Heart rate (HR), end-systolic (ESP) and end-diastolic pressures (EDP), as well as the peak rates of pressure rise/decline (dP/dtmax and dP/dtmin), the contractility index (CI: dP/dt/P at dP/dtmax), and the time-constant of myocardial relaxation (tau1/2, time for 50% decay from dP/dtmin) were derived from the LV pressure signal. Meanwhile, the end-systolic (ESV) and end-diastolic volumes (EDV) were measured from the LV volume signal derived from the implanted myocardial crystals. LV volumes were derived assuming a Teichholz model, and stroke volume (SV=EDV−ESV), ejection fraction (EF=SV/EDV), as well as cardiac output (CO=SV·HR) were calculated; in a subset of animals, SV and CO values were verified from data derived from the implanted aortic flow […]. […] The slopes of the preload-recruitable stroke work (PRSW; stroke work vs. EDV) and the end-systolic pressure-volume relationships (ESPVR; end-systolic elastance, Ees) were derived by software using linear models (IOX; EMKA Technologies), and were used as load-independent inotropic indices. Ventricular load was estimated by the effective arterial elastance (Ea=ESP/SV). […]

[3] = tested on: conscious Sprague-Dawley rats; test: Mavacamten-induced cardio-depression with positive inotropic challenges, echocardiography; assay type: in vivo, rat; conditions: inotropic challenge 3 hrs after MAVA 4 mg/kg PO
Protocol: Methods: The responsiveness of mavacamten-induced cardio-depression to positive inotropic challenges was assessed in a set of conscious Sprague-Dawley rats. In these animals, functional reserve was assessed via either dobutamine (+DOB, 10 ug/kg/min IV for 10 min, n=7) or levosimendan (+LEVO, 0.3 μmol/kg IV over […]; n=6) challenges given 3 hrs following a single-dose administration of MAVA (at 4 mg/kg, PO). Cardiac function/geometry were recorded and compared at three separate time-points/days: prior to dosing (i.e., at baseline) and at 3 hrs post-dosing both before as well as during the inotropic challenge; in order to account for the levosimendan-induced changes in loading conditions, an additional echocardiographic examination was performed following acute preload-restoration in LEVO-treated rats (+LEVO/F, 0.9% NaCl at 30 mL/kg/hr IV).
In these experiments, left-ventricular fractional shortening (FS), an index of systolic performance, as well as LV dimensions/volumes and heart rates were measured using a high-frequency transducer and parasternal long-axis transthoracic views (Vevo2100, VisualSonic). FS was defined as the end-diastole normalized change in internal dimensions/diameter of the left ventricle between end-systole (LVESd) and end-diastole (LVEDd) (i.e., FS=100·[LVEDd−LVESd]/LVEDd). LV volumes were derived assuming a Teichholz model (LVV=7·[2.4+LVid]−1·LVid3).

[4] = tested on: Yucatan mini-pigs with a heterozygous MYH7 R403Q mutation; test: Chronic MYK-581 in mini-pig genetic model of non-obstructed HCM (cMR imaging, invasive hemodynamics, dobutamine challenge); assay type: in vivo
Protocol: The mini-pigs were treated for at least 12 weeks and were evaluated as shown in Schematic 1 below. […] After ˜14 weeks of treatment, all pigs underwent in vivo cMR imaging for the assessment of LV function and geometry, as well as of myocardial composition via of Late Gadolinium Enhancement (LGE) and T1 mapping techniques including extracellular volume (ECV) assessments. In addition, a subset of animals (MYK: n=6, CTRL: n=5) also underwent terminal invasive hemodynamics assessments, including cardiac output (CO, via thermodilution), load-independent systolic/diastolic function (via LV pressure-volume relationships), and β-adrenergic (β-AR) cardiac reserve (via dobutamine at 5 ug/kg/min IV).
The mini-pig model can be obtained following the method disclosed in a presentation entitled “A Minipig Genetic Model of Hypertrophic Cardiomyopathy Uncovers the Pathophysiological Mechanisms of Disease Evolution”, by E. Green et al., at University of Iowa, Carver College of Medicine.

[5] = biological target: T1, bovine cardiac synthetic myosin filaments (Bos taurus, UniProt Q9BE39); test: DRX/SRX ATPase rate and SRX population in cardiac synthetic myosin filaments; assay type: biochemical; conditions: over a range of concentrations; the two compounds compared
T1 construct: bovine cardiac synthetic myosin filaments; from tissue; host or cells: bovine heart (inferred from 'bovine cardiac'; the preparation is not described)
T1 sequence (Q9BE39 whole entry): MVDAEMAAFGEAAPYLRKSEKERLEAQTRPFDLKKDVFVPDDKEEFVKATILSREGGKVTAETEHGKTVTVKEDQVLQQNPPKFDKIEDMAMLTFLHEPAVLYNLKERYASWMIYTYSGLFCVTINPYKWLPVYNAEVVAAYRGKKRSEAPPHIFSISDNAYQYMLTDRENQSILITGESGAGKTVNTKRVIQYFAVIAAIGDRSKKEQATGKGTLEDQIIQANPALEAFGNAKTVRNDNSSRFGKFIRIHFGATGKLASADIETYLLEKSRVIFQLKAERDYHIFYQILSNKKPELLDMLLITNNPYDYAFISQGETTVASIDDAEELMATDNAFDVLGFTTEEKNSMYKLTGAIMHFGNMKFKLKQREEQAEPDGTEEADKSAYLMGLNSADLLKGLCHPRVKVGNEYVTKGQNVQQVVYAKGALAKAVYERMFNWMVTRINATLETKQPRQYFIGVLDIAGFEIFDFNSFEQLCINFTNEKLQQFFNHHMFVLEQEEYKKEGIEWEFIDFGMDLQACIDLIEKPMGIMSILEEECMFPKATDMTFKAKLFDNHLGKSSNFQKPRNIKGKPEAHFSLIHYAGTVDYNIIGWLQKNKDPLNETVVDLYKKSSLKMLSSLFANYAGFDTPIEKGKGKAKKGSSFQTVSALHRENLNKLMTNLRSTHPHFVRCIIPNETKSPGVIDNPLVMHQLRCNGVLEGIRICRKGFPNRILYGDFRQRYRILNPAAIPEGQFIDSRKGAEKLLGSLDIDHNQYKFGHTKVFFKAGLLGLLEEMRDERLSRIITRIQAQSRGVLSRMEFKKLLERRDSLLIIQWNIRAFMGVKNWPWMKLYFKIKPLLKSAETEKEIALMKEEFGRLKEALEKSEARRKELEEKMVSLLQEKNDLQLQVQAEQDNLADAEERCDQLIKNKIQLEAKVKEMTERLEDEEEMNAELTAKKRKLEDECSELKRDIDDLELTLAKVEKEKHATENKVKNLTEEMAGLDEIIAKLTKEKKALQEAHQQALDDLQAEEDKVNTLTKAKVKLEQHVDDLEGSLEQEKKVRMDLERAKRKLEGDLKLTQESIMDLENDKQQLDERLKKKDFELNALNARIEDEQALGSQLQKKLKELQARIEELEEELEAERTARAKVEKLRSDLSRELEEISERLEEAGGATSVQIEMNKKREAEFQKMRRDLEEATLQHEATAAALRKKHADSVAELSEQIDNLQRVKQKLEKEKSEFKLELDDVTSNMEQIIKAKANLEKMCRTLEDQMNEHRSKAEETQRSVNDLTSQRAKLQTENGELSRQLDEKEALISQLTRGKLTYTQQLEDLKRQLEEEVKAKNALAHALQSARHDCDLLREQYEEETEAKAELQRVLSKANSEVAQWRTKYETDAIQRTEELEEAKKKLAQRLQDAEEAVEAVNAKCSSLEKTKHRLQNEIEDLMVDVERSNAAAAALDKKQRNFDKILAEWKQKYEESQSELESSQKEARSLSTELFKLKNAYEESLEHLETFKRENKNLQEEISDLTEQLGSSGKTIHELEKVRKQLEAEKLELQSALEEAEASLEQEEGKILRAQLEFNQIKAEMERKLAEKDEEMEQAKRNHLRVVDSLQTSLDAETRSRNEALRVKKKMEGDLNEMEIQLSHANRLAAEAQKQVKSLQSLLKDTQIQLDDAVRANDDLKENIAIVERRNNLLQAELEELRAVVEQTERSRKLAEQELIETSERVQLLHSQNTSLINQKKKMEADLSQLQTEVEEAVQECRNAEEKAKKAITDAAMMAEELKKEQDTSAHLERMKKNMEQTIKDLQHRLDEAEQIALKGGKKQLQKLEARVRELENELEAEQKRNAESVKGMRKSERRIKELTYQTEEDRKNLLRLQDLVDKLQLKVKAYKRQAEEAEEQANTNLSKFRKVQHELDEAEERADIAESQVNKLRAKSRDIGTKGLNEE
T1 sequence (P85100 whole entry partner): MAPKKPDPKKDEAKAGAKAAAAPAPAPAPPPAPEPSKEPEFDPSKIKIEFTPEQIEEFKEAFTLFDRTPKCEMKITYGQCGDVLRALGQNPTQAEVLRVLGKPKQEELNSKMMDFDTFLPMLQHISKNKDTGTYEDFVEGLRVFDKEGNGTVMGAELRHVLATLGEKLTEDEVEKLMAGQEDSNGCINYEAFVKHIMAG
T1 sequence (Q3SZE5 whole entry partner): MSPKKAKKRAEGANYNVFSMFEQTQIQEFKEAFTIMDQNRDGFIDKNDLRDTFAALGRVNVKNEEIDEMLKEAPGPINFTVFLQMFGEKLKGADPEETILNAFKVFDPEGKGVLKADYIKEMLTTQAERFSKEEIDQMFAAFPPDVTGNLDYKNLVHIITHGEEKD

## CC(C)NCC(O)c1ccc(O)c(O)c1 (stereo not drawn) [isoproterenol]
[1]
  pharmacologic effects of mavacamten counteracted: can be counteracted

## CC(CCc1ccc(O)cc1)NCCc1ccc(O)c(O)c1 (stereo not drawn) [dobutamine]
Anaesthetized rats
  pharmacologic effects of mavacamten counteracted: can be counteracted
[2]
  stroke-volume/cardiac output recruitments: comparable stroke-volume/cardiac output recruitments
[3]
  echocardiography-derived indices of systolic function after mavacamten: successfully rescued/restored

## C[C@@H]1CC(=O)NN=C1c1ccc(NN=C(C#N)C#N)cc1 [levosimendan]
[3]
  echocardiography-derived indices of systolic function after mavacamten: successfully rescued/restored

## CC(C)n1c(=O)cc(N[C@@H](C)c2cccc(F)c2)[nH]c1=O [MYK-581, (S)-6-((1-(3-fluorophenyl)ethyl)amino)-3-isopropylpyrimidine-2,4(1H,3H)-dione]
[4]; chronic treatment
  CO (cardiac output): preserving CO
[4]; dobutamine challenge, control +26±2
  CO change, β-AR cardiac reserve: +60±8%
[4]; vs control
  T1-times: lower T1-times
[5]
  DRX ATPase rate and SRX ATPase Rate (as a fraction of control): similar

From patent US12616697B2, “Methods of treatment with myosin modulator” (MyoKardia, Inc., priority 2020, dated 2026)
